Laboratory results reported in patent US20230257351A1, “SUBSTITUTED N-[…] HAVING P2X4 RECEPTOR ANTAGONISTIC ACTIVITY” (Bayer Aktiengesellschaft, priority 2020, published 2023).

Tests used:
[1] = target: T1, rat P2X4 (Rattus norvegicus, UniProt P51577); assay: FLIPR Method for Rat P2X4 1321N1 Astrocytoma Cells; type: cell-based; conditions: 1321N1 stably expressing rat P2X4; agonist MgATP 5 μM (EC80)
T1 construct: expressed in transfected cells
T1 sequence (P51577 1-388): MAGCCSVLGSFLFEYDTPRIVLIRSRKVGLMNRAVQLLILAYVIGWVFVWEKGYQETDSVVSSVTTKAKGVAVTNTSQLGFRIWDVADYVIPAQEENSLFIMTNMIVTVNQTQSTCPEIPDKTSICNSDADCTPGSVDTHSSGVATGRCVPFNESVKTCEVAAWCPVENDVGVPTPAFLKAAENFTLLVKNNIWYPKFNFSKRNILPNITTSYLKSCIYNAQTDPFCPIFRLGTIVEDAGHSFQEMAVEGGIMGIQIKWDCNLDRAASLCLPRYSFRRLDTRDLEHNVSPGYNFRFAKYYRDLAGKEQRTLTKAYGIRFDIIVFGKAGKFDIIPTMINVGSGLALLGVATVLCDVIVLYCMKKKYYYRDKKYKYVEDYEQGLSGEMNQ
Procedure, shortened: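 1321N1 cells stably expressing rat P2X4, Fluo8-AM loaded; compounds (25 μM to 1 nM final, ten concentrations) preincubated 30 min at room temperature, then MgATP added at 5 μM (EC80). Calcium fluorescence read on FLIPR before and after agonist; triplicate data normalized to agonist control, four-parameter fit gives IC50.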

[2] = system: neuropathic mechanical allodynia induced by CCI surgery; assay: Chronic Constriction Injury (CCI) Neuropathic Pain Model in Rats with Pain Behavior Read Out; type: in vivo, male Sprague-Dawley rats; conditions: rat CCI, von Frey, BID p.o. days 0 through 9
Description: Aim of the study was to test the efficacy of example 68 at ameliorating neuropathic mechanical allodynia. Male Sprague-Dawley rats were subject to chronic constriction injury of the sciatic nerve to induce neuropathic pain. Of those rats, 10 per group were assigned to treatment conditions involving BID drug administration for 10 days and behavioral assessment of mechanical sensitivity for allodynia with von Frey testing (vF). Behavior was assessed pre- and postdosing on Days 0, 2, 5, and 9. Rats were treated with Vehicle or test article BID on days 0 through 9, and rats in the gabapentin treatment group received gabapentin SID on days 0, 2, 5, and 9 in conjunction with behavioral assessment.
As vehicle Solutol/DMSO/WFI (40/10/50) was employed. Application volume for the per oral administration was 10 ml/kg.
Neuropathy was induced in male Sprague-Dawley rats by tying four loose ligatures of chromic gut around the common sciatic nerve in deeply anesthetized rats like described in Bennett, G. J., and Y. K. Xie. “A Peripheral Mononeuropathy in Rat That Produces Disorders of Pain Sensation like Those Seen in Man.” Pain 33 (1988): 87-107.
Mechanical allodynia was measured using 8 Semmes-Weinstein filaments (Stoelting©; Wood Dale, Ill., USA) with varying stiffness (0.4, 0.6, 1.0, 2.0, 4.0, 6.0, 8.0, and 15 g) according to the up-down method1. Animals were placed in individual acrylic chambers on a metal mesh surface and allowed to acclimate to their surroundings for a minimum of 15 minutes before testing. Each filament was presented perpendicular to the plantar surface with sufficient force to cause slight buckling against the paw and held for approximately 6 seconds or until a positive response is noted (paw sharply withdrawn).
Testing was initiated with the 2.0 g filament. In the absence of a paw withdrawal response, the next stronger stimulus was presented. In the event of paw withdrawal, the next weaker stimulus was used. […]
The 50% response threshold is calculated using the formula: […]

[3] = system: intraplantar Complete Freund's Adjuvant (CFA)-induced acute inflammatory pain; assay: CFA Inflammation Model in Rats with Pain Behaviour Read Out; type: in vivo, male Sprague Dawley rats; conditions: for PWT 2 hour-post drug: mean PWT
Description: Compound was tested in the model of intraplantar Complete Freund's Adjuvant (CFA)-induced acute (48-hours setting) inflammatory pain in male Sprague Dawley rats. Briefly, 25 μl of CFA at 1 mg/ml was injected into the plantar surface of one hind paw. Mechanical hyperalgesia was measured using the Pressure Application Measurement apparatus (Ugo Basile, Gemonio, Italy). A linearly increasing pressure was applied to an area of approximately 50 mm^2 of the plantar side of the hind paw until a behavioural response (paw withdrawal) was observed or until the pressure reached 1000 grams of force (gf). The pressure at which the behavioural response occurred was recorded as the “Paw Withdrawal Threshold” (PWT). Both CFA-injected and contralateral PWTs were determined for each rat, in each treatment group and at each time point of the studies. The measurements were performed blinded. […] Compound or vehicle (10% DMSO, 40% Solutol, 50% water for injection, vol/vol) were dosed via oral route (p.o.) once daily (QD) or twice daily (BID) during 3 days, starting before CFA injection. Data were expressed as the mean PWT for each treatment group and at each time point. PWT data were analysed by performing a two way ANOVA with repeated measures (time×treatment). Planned comparison of means (each versus vehicle) was performed by using a Dunnett's post hoc test, provided that a main effect was detected. For p values less than 0.05, the results were deemed to be statistically significant.

CC(=O)N(c1ccc(F)c(F)c1)c1cc(NC(=O)Cc2ccc(F)cc2Cl)ccn1 [Example 68, N-{4-[2-(2-chloro-4-fluorophenyl)acetamido]pyridin-2-yl}-N-(3,4-difluorophenyl)acetamide]
IC50 [1]: 0.233 µM | Rat P2X4 1321N1 Astrocytoma Cells (FLIPR Assay) avg Efficacy [1]: 89% | mechanical allodynia induced by CCI surgery [2]: decreased mechanical allodynia | 50% paw withdrawal threshold ([2]; 30 and 100 mg/kg (FIG. 1)): increased 50% paw withdrawal threshold significantly | PWT 2 hour-post drug ([3]; rat CFA, 10 mg/kg BID p.o. during 3 days): 630 gf | PWT 2 hour-post drug ([3]; rat CFA, 30 mg/kg BID p.o. during 3 days): 648 gf | PWT 2 hour-post drug ([3]; rat CFA, 100 mg/kg BID p.o. during 3 days): 759 gf | pain after treatment ([3]; rat CFA, 10, 30 and 100 mg/kg doses BID, 2 hours after last administration): significantly reduced pain | development of inflammatory pain after the injection of CFA ([3]; rat, oral administration BID during 3 days): prevented the development of inflammatory pain
